Laboratory results: US20090325992A1, “COMPOUND HAVING CYCLIC GROUP BOUND THERETO THROUGH SPIRO BINDING AND USE THEREOF” (ONO PHARMACEUTICAL CO., LTD., priority 2006, published 2009)
Read-outs that look alike come from different tables or passages of the source.

Experiments:
[1] = tested on: CHL/IU (cell line derived from a Chinese hamster lung); test: Phospholipidosis detecting system using fluorescent labeling phospholipid analog (NBD-PE); assay type: cell-based
Method: Investigation with Phospholipidosis Detecting System using Fluorescent Labeling Phospholipidosis Analog under Severity Condition (1) Phospholipid Accumulation Measurement 100 μL/well as required (1 dose 2 wells) of cell suspension of CHL/IU (cell line derived from a Chinese hamster lung) (7×10^4 cells/mL) prepared by MEM (minimum essential medium) culture medium was added to a 96-well plate (96-well clear-bottom plate), and cultured for about 24 hours. After culture, the supernatant of the 96-well plate was removed, and the 100 μL/well compounds of each concentration dissolved and suspended in an MEM including 25 μmol/L nitrobenzoxadiazole dipalmitoyl phosphatidylethanolamine (NBD-PE) (hereinafter abbreviated as a NPD-PE medium) were added and treated for about 48 hours. The treatment concentrations of each compound were set to be 5, 50, 100 and 200 μM. The positive control substance was set to be amiodarone hydrochloride, and the treatment concentrations were set to be 1.25, 2.5, 5, 10 and 20 μM. In addition, 5-well untreated controls (only MEM) and 5-well NBD-PE controls (made by means of adding a 1/100 amount of DMSO to the NBD-PE culture medium) were set per compound, and cultured in the same manner. After finishing the culture, the cultures were washed twice with phosphate buffered saline (hereinafter abbreviated as PBS) (−) 100 μL/well, and the MEM (100 μL) was added to all of the treatment wells including two empty wells for WST-1 background controls and cultured for about a half hour. The fluorescence intensities of each well were measured by using a microplate reader (manufactured by Molecular Devices Inc., SPECTRA max M2; the excitation wavelength 485 nm/fluorescence wavelength 535 nm). (2) Analysis Using the average values of each dose×2 wells, a phospholipid increase rate (%) to the NBD-PE control was calculated by using the following calculating formula: Rate of increase of phospholipid accumulation (%)=100×{(test compound fluorescence intensity−non-treated control fluorescence intensity)/(NBD-PE control fluorescence intensity−non-treated control fluorescence intensity)} [Equation 2] (3) Cytotoxicity Assay 96-well plate measured in the phospholipid accumulation measurement was measured by means of Plate Reader (manufactured by Molecular Devices Inc., SPECTRA max M2) with the main wavelength of 450 nm and the correct wavelength of 690 nm to calculate a Pre value. An amount of 5 μL/well of Premix WS T-1 was added to each of the 96-hole plates by which Pre measurement was conducted. After culture for 2 to 4 hours, the 96-well plate was measured as well as the Pre measurement to calculate an Aft value. Then, the background control value was subtracted from the each measured value. A value which was calculated by subtracting the Pre value from the Aft value was used, then the cell growth rate (%) was calculated by using the following calculating formula: Cell growth rate (%)=100×[(test substance OD)/(NBD-PE control OD)] [Equation 3] (4) Determination A test dose that indicated value of 25% or more of the maximum phospholipid accumulation increase rate of amiodarone which was the positive control was determined as positive. In addition, the dose whose cell growth rate was equal to or less than 50% in the cytotoxicity assay was not used for determination of existence or nonexistence of a phospholipidosis inductive effect.

[2] = rat, in vivo, iv, 1 mg/kg
Method: (§1) Measurement of Maximum Plasma Level (Cmax) and Stationary State Distribution Volume (Vss)
(§2) A compound to be evaluated is weighed, dissolved in WellSolve (trade name; manufactured by Celeste Corporation) which is heated to 60° C. and adjusted to 20 mg/mL; thereafter, the test compound is diluted by 10 times with distilled water for injection, and further diluted by 2 times with saline solution, by which intravenously administered solution is eventually made. A compound to be evaluated is dissolved in WellSolve which is heated to 60° C. and adjusted to 50 mg/mL; thereafter, the compound to be evaluated is diluted with distilled water for injection and adjusted to 1 mg/mL. Five compounds (one set) were mixed in the same amount and adjusted to final concentration of 0.2 mg/mL per one compound, by which orally administered solution is eventually made. […] The administration is conducted under fasting conditions; water is freely ingested. In the case of intravenous administration, a 0.35 mL of blood sample is taken from cervical vein by using Heparinized Syringe at 5 minutes, 15 minutes, 30 minutes, 1 hour, 2 hours, 4 hours, 6 hours, 8 hours, and 24 hours after administration. […] The obtained blood is stored in ice, and after centrifugation at 12,000 rpm for 3 minutes, blood plasma is fractionated. In the case of intravenous administration, the blood plasma sample preserved at a temperature of −80° C. is dissolved; inner standard solution (100 μL) and acetonitrile (2 mL) are added to the blood plasma sample (100 μL) and stirred, and the sample is centrifuged at 2,500 rpm for 10 minutes.
(§3) After the supernatant centrifuged is evaporated to dryness by means of a centrifugal concentrator, 67% dimethyl sulfoxide solution (150 μL) is added to the residue and dissolves them again and 20 μL of the solution is analyzed by means of LC/MS/MS.
(§4) Measurement device: Waters 2795 (manufactured by Waters Corporation) Analytical column: Unison UK-C18, 3.0 μm particle size, 2.0 mm×30 mm (manufactured by Imtakt Corporation) Analytical column temperature: Room temperature Flow rate: 200 μL/min Moving bed: 5 mM IPC-PFAA-7 solution/acetonitrile (9/1→1/9)
(§5) Measurement device: Quatro micro API (manufactured by Micromass Communications Inc.) Scan type: MPM
(§6) The monitor ion which was suitable for each sample was selected.
(§7) A portion of the compound to be intravenously administered was subjected to the following treatment. The blood plasma sample preserved at a temperature of −80° C. is dissolved; inner standard solution (50 μL) and acetonitrile (1 mL) are added to the blood plasma sample (50 μL) and stirred, and the sample is centrifuged at 3,000 rpm for 10 minutes. After the supernatant is evaporated to dryness by means of a centrifugal concentrator, the residue was redissolved in water/acetonitrile (1/1) and the solution is analyzed by means of LC/MS/MS under the following conditions.
(§8) Measurement device: 1200 series system (manufactured by Agilent Technologies) Analytical column: Asahipak OOD-50 2D, 2×150 mm (manufactured by Showa Denko K.K.) Analytical column temperature: Room temperature Moving bed: 5 mM IPC—PFAA-7 solution/acetonitrile (gradient) Flow rate: 200 μL/min

[3] = Artificial lipid membrane binding using Biacore S51 system
Method: Artificial Lipid Membrane Binding Account by using Biacore® S51 System
10 mM of 1,2-dioleoyl-sn-glycero-3-phosphate monosodium salt (hereinafter abbreviated as DOPA) chloroform solution was evaporated to dryness by means of an aspirator, and 0.6 mL of PBS/5% dimethyl sulfoxide (hereinafter abbreviated as DMSO) was added. The chloroform solution was fully suspended by means of a vortex mixer, and the freezing and thawing were repeated for 5 times. Liposome was created by means of a liposome preparation instrument (manufactured by Avestin Inc.) and two syringes, and was diluted to 0.5 mM with PBS/5% DMSO just prior to immobilization.
(2) Measurement Compound Preparation
38 μl of 1×PBS is added to 2 μl of a DMSO solution (10 mM), and further the 360 μl of 1×PBS/5% DMSO was added and the 50 μM of final concentration in PBS/5% DMSO was prepared and measured.
All of the following analysis used Biacore® S51 system and the measurement conditions were set by Biacore S51 Control Soft.
The measurement temperature was set to be 37° C., and PBS/5% DMSO (pH 7.4 or 6.0) was used as a buffer. Series S Sensor Chip L1 was used for a sensor chip. DOPA was immobilized in one of the measuring spots on the sensor surface and the central spot was used as a reference.
Immobilization of liposome was conducted at a flow rate of 10 μL/min for about 3 minutes and then the compound was added at a flow rate of 30 μL/min and the interaction was measured. The measurement conditions are as follows:
Assay buffer: PBS/5% DMSO (pH 7.4) Measurement temperature: 37° C. Sensor chip: Series S Sensor Chip L1 Flow rate: 10 μL/min at the time of the liposome immobilization; 30 μL/min at the time of the measurement of interaction with the compound Regeneration: 20 mM CHAPS (3-[(3-cholamidopropyl)dimethylammonio]-1-propanesulfonate), isopropylalcohol/aqueous 50 mM sodium hydroxide solution=40/60 (volume ratio) mixture solution (60 seconds)
The data processing was conducted by means of method of Abdiche et al., (Analytical biochemistry, 328, 233-243 (2004)) by using Biacore S51 Evaluation Soft.
Regarding the value of binding response (RU) in which the value of reference was subtracted, it was divided by a sample molecular weight after minute error of the DMSO concentration included in the sample solution was corrected. In addition, the value obtained here was divided by an amount of capture at the time of the cycle because the value obtained here was proportional to the amount of capture of the liposome and the value was multiplied by a million to be considered as a corrected value (Corrected value=1,000,000×RU (test compound)/molecular quantity (test compound) RU (liposome)).
The compound wherein a value of the binding response after the correction was 150 or more was determined as positive.

[4] = target: T1, CXCR4 (human T cell strain CEM cells) (Homo sapiens, UniProt P61073); test: Inhibition of binding human SDF-1 to CEM cells (125I-SDF-1); conditions: 4° C., 60 minutes
T1 construct: a human T cell strain in which CXCR4 is known to be expressed; endogenous in cells; host or cells: CEM cells (human T cell strain)
T1 sequence (P61073 whole entry): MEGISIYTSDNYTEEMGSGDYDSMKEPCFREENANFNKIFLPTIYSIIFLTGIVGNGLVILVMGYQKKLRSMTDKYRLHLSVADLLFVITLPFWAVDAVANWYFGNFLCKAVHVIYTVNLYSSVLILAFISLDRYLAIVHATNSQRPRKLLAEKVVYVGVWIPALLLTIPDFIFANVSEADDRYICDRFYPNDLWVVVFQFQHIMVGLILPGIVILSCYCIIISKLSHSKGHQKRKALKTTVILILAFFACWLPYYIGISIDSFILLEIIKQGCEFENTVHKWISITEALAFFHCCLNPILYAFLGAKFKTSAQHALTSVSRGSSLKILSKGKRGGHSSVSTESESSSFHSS
Method: Specifically, as a system of screening a compound that inhibits the binding between SDF-1 and CXCR4, for example a system of measuring the binding between iodine-labeled SDF-1 and a human T cell strain in which CXCR4 is known to be expressed is operable.
Study for Inhibition of Binding Human SDF-1 to CEM Cells
To human T cell strain CEM cells in a binding buffer (containing HEPES and BSA), the test compound and ^125I-SDF-1 (PerkinElmer) were added and the mixture was incubated at 4° C. for 60 minutes. The reacted CEM cells were rapidly filtrated with a GF/B membrane filter plate (Packard) to adsorb. The plate was washed with phosphate buffered saline (hereinafter abbreviated to PBS) three times and then dried. Microscint+20 (Packard) was added thereto. An amount of the radioactivity bound to the CEM cells was measured using Top Count (Packard) and inhibition (%) of the test compound was calculated according to the following equation:
Inhibition={(Et−Ea)/(Et−Ec)}×100 [Equation 1]
Et: Amount of radioactivity when the test compound is not added,
Ec: Amount of radioactivity when non-radioactive SDF-1 (Pepro Tech) is added in an amount of 1,000 times as much as ^125I-SDF-1 as a test compound, and
Ea: Amount of radioactivity when the test compound is added.

[5] = Measurement of maximum plasma level (Cmax) and stationary state distribution volume (Vss); conditions: male, Crl:CD(SD), rat, iv, 1 mg/kg
Method: as §1, §2, §3, §4, §5, §6, §7, §8

Distribution volume (L/kg) (stationary state distribution volume, Vss) [2] | Value of binding response (RU) ([3]; DOPA liposome, 50 μM compound, PBS/5% DMSO pH 7.4, 37° C., corrected value) | Determination (artificial lipid membrane binding) ([3]; positive = corrected binding response 150 or more) | IC50 [4] [nM] | Vd [5] [L/kg] | SMILES | Determination (phospholipidosis, NBD-PE system) [1] | Rate of increase of phospholipid accumulation (%) (compound dose: 200 μM) ([1]; CHL/IU cells, compound dose 200 μM, about 48 hours, relative to NBD-PE control) | Determination (phospholipidosis, NBD-PE system) ([1]; positive = 25% or more of the maximum increase rate of amiodarone)
0.90 |  |  |  |  | CC(C)CN1CCC2(CC1)CCN(CCCn1ccnc1CN(CCCC(=O)O)Cc1ncc[nH]1)C2 [Example 22(3), 4-[(1H-imidazol-2-ylmethyl)({1-[3-(8-isobutyl-2,8-diazaspiro[4.5]deca-2-yl)propyl]-1H-imidazol-2-yl}methyl)amino]butanoic acid] | Negative |  | 
 | 36.1 | Negative | 4 | 0.65 | CCC(CC)N1CCC2(CCN(CCCn3ccnc3CN(Cc3ccc(OCC(=O)O)cc3)Cc3ncc[nH]3)C2)CC1 [Example 43, [4-({[(1-{3-[8-(1-ethylpropyl)-2,8-diazaspiro[4.5]deca-2-yl]propyl}-1H-imidazol-2-yl)methyl](1H-imidazol-2-ylmethyl)amino}methyl)phenoxy]acetic acid] |  | 16 | Negative
